# Assay results: patent publication US11596639B2, “Substituted indole Mcl-1 inhibitors” (Vanderbilt University, priority 2016, dated 2023)
# Biological target: Mcl-1 (Homo sapiens (Human), UniProt Q07820)
# Assay: Fluorescence polarization anisotropy (FPA) competition assay, FITC-Bak or FITC-Bim BH3 peptide
# Assay type: binding
# Settings: read-out: Ki for Inhibition of Mcl-1 by FPA assay
# Chain of Mcl-1 (Q07820 172-327): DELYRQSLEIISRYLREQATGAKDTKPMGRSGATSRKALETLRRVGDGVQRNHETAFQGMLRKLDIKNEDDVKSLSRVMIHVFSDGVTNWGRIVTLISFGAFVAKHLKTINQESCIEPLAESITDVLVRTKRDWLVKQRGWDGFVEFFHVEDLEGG
row,SMILES,Ki [nM]
1,"Cc1cc(OCCCc2c(C(=O)N(C)c3cccc(C(=O)O)c3)n(CCN3CCOCC3)c3c(-c4c(C)nn(C)c4C)c(Cl)ccc23)cc(C)c1Cl [Example 730, 3-[[6-chloro-3-[3-(4-chloro-3,5-dimethyl-phenoxy)propyl]-1-(2-morpholinoethyl)-7-(1,3,5-trimethylpyrazol-4-yl)indole-2-carbonyl]-methyl-amino]benzoic acid]",20
2,"COC(=O)c1cc2c(c(N3CCCn4c(c(CCCOc5cc(C)c(Cl)c(C)c5)c5ccc(Cl)c(-c6c(C)nn(C)c6C)c54)C3=O)c1)OCCO2 [Example 60, Methyl 8-(8-chloro-11-(3-(4-chloro-3,5-dimethylphenoxy)propyl)-1-oxo-7-(1,3,5-trimethyl-1H-pyrazol-4-yl)-4,5-dihydro-1H-[1,4]diazepino[1,2-a]indol-2(3H)-yl)-2,3-dihydrobenzo[b][1,4]dioxine-6-carboxylate]",< 1
3,"Cc1cc(OCCCc2c3n(c4c(-c5c(C)nn(C)c5C)c(Cl)ccc24)[C@H](C)CN(c2nc4cc(C(=O)O)ccn4n2)C3=O)cc(C)c1Cl [Example 135, (R)-2-(7-chloro-10-(3-(4-chloro-3,5-dimethylphenoxy)propyl)-4-methyl-1-oxo-6-(1,3,5-trimethyl-1H-pyrazol-4-yl)-3,4-dihydropyrazino[1,2-a]indol-2(1H)-yl)-[1,2,4]triazolo[1,5-a]pyridine-7-carboxylic acid]",< 1
4,"Cc1cc(OCCCc2c3n(c4c(-c5c(C)nn(C)c5C)c(Cl)ccc24)[C@H](C)CN(c2cn(C)c4ccc(-c5nnc(C6CCCCC6)o5)cc24)C3=O)cc(C)c1Cl [Example 413, (R)-7-Chloro-10-(3-(4-chloro-3,5-dimethylphenoxy)propyl)-2-(5-(5-cyclohexyl-1,3,4-oxadiazol-2-yl)-1-methyl-1H-indol-3-yl)-4-methyl-6-(1,3,5-trimethyl-1H-pyrazol-4-yl)-3,4-dihydropyrazino[1,2-a]indol-1(2H)-one]",3.5
5,"Cc1cc(OCCCc2c3n(c4c(-c5c(C)nn(C)c5C)c(Cl)ccc24)[C@H](C)CN(c2cccc4cc(C(=O)O)n(CC5CCN(C)C5)c24)C3=O)cc(C)c1Cl (stereo partly drawn) [Example 320, 7-((R)-7-Chloro-10-(3-(4-chloro-3,5-dimethylphenoxy)propyl)-4-methyl-1-oxo-6-(1,3,5-trimethyl-1H-pyrazol-4-yl)-3,4-dihydropyrazino[1,2-a]indol-2(1H)-yl)-1-((1-methylpyrrolidin-3-yl)methyl)-1H-indole-2-carboxylic acid]",2.7
6,"Cc1cc(OCCCc2c3n(c4c(-c5c(C)nn(C)c5C)c(Cl)ccc24)[C@H](C)CN(c2ccc4nc(C(=O)O)cn4c2)C3=O)cc(C)c1Cl [Example 139, (R)-6-(7-chloro-10-(3-(4-chloro-3,5-dimethylphenoxy)propyl)-4-methyl-1-oxo-6-(1,3,5-trimethyl-1H-pyrazol-4-yl)-3,4-dihydropyrazino[1,2-a]indol-2(1H)-yl)imidazo[1,2-a]pyridine-2-carboxylic acid]",1.1
7,"Cc1cc(OCCCc2c(C(=O)N3CCN(c4cncc(C(=O)O)c4)CC3)n(Cc3cccnc3)c3c(-c4c(C)nn(C)c4C)c(Cl)ccc23)cc(C)c1Cl [Example 734, 5-(4-(6-chloro-3-(3-(4-chloro-3,5-dimethylphenoxy)propyl)-1-(pyridin-3-ylmethyl)-7-(1,3,5-trimethyl-1H-pyrazol-4-yl)-1H-indole-2-carbonyl)piperazin-1-yl)nicotinic acid]",> 200
8,"Cc1cc(OCCCc2c3n(c4c(-c5c(C)nn(C)c5C)c(Cl)ccc24)CCCN(c2cc(C(=O)O)cc4c2cnn4CCN(C)C)C3=O)cc(C)c1Cl [Example 40, 4-[8-Chloro-11-[3-(4-chloro-3,5-dimethyl-phenoxy)propyl]-1-oxo-7-(1,3,5-trimethylpyrazol-4-yl)-4,5-dihydro-3H-[1,4]diazepino[1,2-a]indol-2-yl]-1-[2-(dimethylamino)ethyl]indazole-6-carboxylic acid]",3.9
9,"Cc1cc(CCCCc2c(C(=O)N3CCN(c4ccnc(C(=O)O)c4)CC3)n(Cc3cccnc3)c3c(-c4c(C)nn(C)c4C)c(Cl)ccc23)cc(C)c1Cl [Example 742, 4-(4-(6-Chloro-3-(4-(4-chloro-3,5-dimethylphenyl)butyl)-1-(pyridin-3-ylmethyl)-7-(1,3,5-trimethyl-1H-pyrazol-4-yl)-1H-indole-2-carbonyl)piperazin-1-yl)picolinic acid]",> 200
10,"Cc1cc(OCCCc2c(C(=O)N3CCC(C(=O)O)C3)[nH]c3c(-c4c(C)ncnc4C)c(Cl)ccc23)cc(C)c1Cl (stereo not shown) [Example 745, 1-[6-Chloro-3-[3-(4-chloro-3,5-dimethyl-phenoxy)propyl]-7-(4,6-dimethylpyrimidin-5-yl)-1H-indole-2-carbonyl]pyrrolidine-3-carboxylic acid]",44
11,"Cc1cc(OCCCc2c3n(c4c(-c5c(C)nn(C)c5C)c(Cl)ccc24)CCCN(c2cc4c(c(C(=O)O)c2)OCCO4)C3=O)cc(C)c1Cl [Example 25, 7-(8-Chloro-11-(3-(4-chloro-3,5-dimethylphenoxy)propyl)-1-oxo-7-(1,3,5-trimethyl-1H-pyrazol-4-yl)-4,5-dihydro-1H-[1,4]diazepino[1,2-a]indol-2(3H)-yl)-2,3-dihydrobenzo[b][1,4]dioxine-5-carboxylic acid]",1.1
12,"COCCCc1c2n(c3c(-c4c(C)nn(C)c4C)c(Cl)ccc13)[C@H](C)CN(c1cn(C)c3ccc(C(=O)O)cc13)C2=O [Example 406, (R)-3-(7-Chloro-10-(3-methoxypropyl)-4-methyl-1-oxo-6-(1,3,5-trimethyl-1H-pyrazol-4-yl)-3,4-dihydropyrazino[1,2-a]indol-2(1H)-yl)-1-methyl-1H-indole-5-carboxylic acid]",> 250
13,"Cc1cc(OCCCc2c3n(c4c(-c5c(C)nn(C)c5C)c(Cl)ccc24)[C@H](C)CN(c2cccc4c2c(C(=O)O)nn4C)C3=O)cc(C)c1Cl [Example 127, 4-[(4R)-7-chloro-10-[3-(4-chloro-3,5-dimethyl-phenoxy)propyl]-4-methyl-1-oxo-6-(1,3,5-trimethylpyrazol-4-yl)-3,4-dihydropyrazino[1,2-a]indol-2-yl]-1-methyl-indazole-3-carboxylic acid]",< 1
14,"COC(=O)c1ccc2c(c1)c(N1C[C@@H](C)n3c(c(CCCOc4cc(C)c(Cl)c(C)c4)c4ccc(Cl)c(-c5c(C)nn(C)c5C)c43)C1=O)cn2COCC[Si](C)(C)C [Example 243, Methyl (R)-3-(7-chloro-10-(3-(4-chloro-3,5-dimethylphenoxy)propyl)-4-methyl-1-oxo-6-(1,3,5-trimethyl-1H-pyrazol-4-yl)-3,4-dihydropyrazino[1,2-a]indol-2(1H)-yl)-1-((2-(trimethylsilyl)ethoxy)methyl)-1H-indole-5-carboxylate]",45
15,"Cc1ccc(S(=O)(=O)N2CCN(c3cc(C(=O)O)cc(CN4CCCn5c(c(CCCOc6cc(C)c(Cl)c(C)c6)c6ccc(Cl)c(-c7c(C)nn(C)c7C)c65)C4=O)n3)CC2)o1 [Example 27, 2-((8-chloro-11-(3-(4-chloro-3,5-dimethylphenoxy)propyl)-1-oxo-7-(1,3,5-trimethyl-1H-pyrazol-4-yl)-4,5-dihydro-1H-[1,4]diazepino[1,2-a]indol-2(3H)-yl)methyl)-6-(4-((5-methylfuran-2-yl)sulfonyl)piperazin-1-yl)isonicotinic acid]",39
16,"Cc1cc(OCCCc2c(C(=O)NCc3cccc(C(=O)O)c3)[nH]c3c(-c4c(C)ncnc4C)c(Cl)ccc23)cc(C)c1Cl [Example 748, 3-[[[6-Chloro-3-[3-(4-chloro-3,5-dimethyl-phenoxy)propyl]-7-(4,6-dimethylpyrimidin-5-yl)-1H-indole-2-carbonyl]amino]methyl]benzoic acid]",6.3
17,"CC(=O)N1CCN(c2cc(C(=O)O)cc(CN3CCCn4c(c(CCCOc5cc(C)c(Cl)c(C)c5)c5ccc(Cl)c(-c6c(C)nn(C)c6C)c54)C3=O)n2)CC1 [Example 17, 2-(4-acetylpiperazin-1-yl)-6-((8-chloro-11-(3-(4-chloro-3,5-dimethylphenoxy)propyl)-1-oxo-7-(1,3,5-trimethyl-1H-pyrazol-4-yl)-4,5-dihydro-1H-[1,4]diazepino[1,2-a]indol-2(3H)-yl)methyl)isonicotinic acid]",10
18,"CCn1ncc2c(C(=O)O)cc(N3C[C@@H](C)n4c(c(CCCOc5cc(C)c(Cl)c(C)c5)c5ccc(Cl)c(-c6c(C)nn(C)c6C)c54)C3=O)cc21 [Example 87, (R)-6-(7-chloro-10-(3-(4-chloro-3,5-dimethylphenoxy)propyl)-4-methyl-1-oxo-6-(1,3,5-trimethyl-1H-pyrazol-4-yl)-3,4-dihydropyrazino[1,2-a]indol-2(1H)-yl)-1-ethyl-1H-indazole-4-carboxylic acid]",< 1
19,"CC[C@@H]1Cn2c(c(CCCOc3cc(C)c(Cl)c(C)c3)c3ccc(Cl)c(-c4c(C)nn(C)c4C)c32)C(=O)N1 [Example 24, (R)-7-chloro-10-(3-(4-chloro-3,5-dimethylphenoxy)propyl)-3-ethyl-6-(1,3,5-trimethyl-1H-pyrazol-4-yl)-3,4-dihydropyrazino[1,2-a]indol-1(2H)-one]",25
20,"Cc1cc(OCCCc2c3n(c4c(-c5c(C)nn(C)c5C)c(Cl)ccc24)[C@H](C)CN(c2cn(C)c4ccc(C(F)(F)F)cc24)C3=O)cc(C)c1Cl (single isomer, unassigned) [Example 200]",6.6
21,"Cc1cc(CCCCc2c(C(=O)N3CCN(c4ccnc(C(=O)O)c4)CC3)[nH]c3c(-c4c(C)nn(C)c4C)c(Cl)ccc23)cc(C)c1Cl [Example 738, 4-(4-(6-Chloro-3-(4-(4-chloro-3,5-dimethylphenyl)butyl)-7-(1,3,5-trimethyl-1H-pyrazol-4-yl)-1H-indole-2-carbonyl)piperazin-1-yl)picolinic acid]",200
22,"Cc1cc(OCCCc2c3n(c4c(-c5c(C)nn(C)c5C)c(Cl)ccc24)CCCN(c2cc(C(=O)O)c4cnn(CCO)c4c2)C3=O)cc(C)c1Cl [Example 107, 6-[8-Chloro-11-[3-(4-chloro-3,5-dimethyl-phenoxy)propyl]-1-oxo-7-(1,3,5-trimethylpyrazol-4-yl)-4,5-dihydro-3H-[1,4]diazepino[1,2-a]indol-2-yl]-1-(2-hydroxyethyl)indazole-4-carboxylic acid]",< 1
